# Laboratory results as given in patent US20160175401A1, “COMPOITIONS AND METHODS FOR MODULATING THERMOGENESIS USING PTH-RELATED AND EGF-RELATED COMPOUNDS” (DANA-FARBER CANCER INSTITUTE INC., priority 2013, published 2016).
# Tests used:
# primary brown adipocytes = assay: Thermogenic gene expression (qRT-PCR) in primary brown adipocytes; assay type: cell-based, mouse
# Procedure: RNA was extracted from cultured cells or frozen tissue samples using TRIzol (Invitrogen), purified with Qiagen RNAeasy minicolums and reverse transcribed using High Capacity cDNA Reverse Transcription kit (Applied Biosystems). Resulting cDNA was analyzed by RT-qPCR. Briefly, 25 ng of cDNA and […] of each primer were mixed with SYBR® GreenER™ PCR Master Mix (Invitrogen). Reactions were performed in 384-well format using an ABI PRISM® 7900HT instrument (Applied Biosystems). Relative mRNA levels were calculated using the comparative CT method normalized to cyclophilin.
# [1] = tested on: PKA substrates CREB and HSL; assay: PKA signalling: protein phosphorylation by western blotting in primary adipocytes; assay type: cell-based, mouse; settings: 100 nM NE, 100 ng ml^−1 PTHrP or PTH, 30 min, primary white and brown adipocytes (FIG. 23D-23E)
# Procedure: UCP1 protein levels were measured by western blotting in white (FIG. 23A) and brown (FIG. 23B) adipocytes. […] Real-time triplicate readings (upper panel) and their averages (lower panel) are shown (n=4). […] The values are mean±s.e.m. Statistical analysis was conducted using the two-tailed t-test. *, P<0.05; **, P<0.005; ***, P<0.0005, compared with the control group.
# (§1) Cells were homogenized in a lysis buffer containing 50 mMTris (pH 7.4), 500 mM NaCl, 1% NP40, 20% glycerol, 5 mM EDTA and 1 mM phenylmethylsulphonyl fluoride (PMSF) supplemented with protease and phosphatase inhibitor cocktails (Roche). The homogenates were centrifuged at 13,000 r.p.m. for 10 min, and the supernatants were used as whole-cell lysates. Protein concentration was determined by Bio-Rad protein assay, and […] protein lysate was separated in each SDS-PAGE lane. The separated proteins were transferred to a polyvinylidene difluoride (PVDF)membrane, which was blotted with antibodies in TBS containing 0.05% Tween (TBS-T) and 5% BSA. For secondary antibody incubation. TBS-T containing 5% milk was used. Enhanced chemiluminescence (ECL) western blotting substrates (Pierce) were used for visualization of the results.
# UCP1 = UCP1 protein levels by western blotting in primary adipocytes; assay type: cell-based, mouse
# Procedure: Cells were homogenized in a lysis buffer containing 50 mM Tris (pH 7.4), 500 mM NaCl, 1% NP40, 20% glycerol, 5 mM EDTA and 1 mM PMSF, supplemented with protease and phosphatase inhibitor cocktails (Roche). The homogenates were centrifuges at 13,000 rpm for 10 min and the supernatants were used as whole cell lysates. Protein concentration was determined by Bio-Rad Bradford assay and 50 μg of proteins were used in each SDS-PAGE run. PVDF membrane was blotted with UCP1 antibody (Abeam) in TBS containing 0.05% Tween and 5% BSA. For secondary antibody incubation, TBS-T containing 5% milk was used. ECL western blotting substrates from Pierce were used for visualization of the results.
# as §1
# PTH1R = target: T1, PTH1R (Homo sapiens, UniProt Q03431); settings: cited from earlier work
# T1 sequence (Q03431 27-593): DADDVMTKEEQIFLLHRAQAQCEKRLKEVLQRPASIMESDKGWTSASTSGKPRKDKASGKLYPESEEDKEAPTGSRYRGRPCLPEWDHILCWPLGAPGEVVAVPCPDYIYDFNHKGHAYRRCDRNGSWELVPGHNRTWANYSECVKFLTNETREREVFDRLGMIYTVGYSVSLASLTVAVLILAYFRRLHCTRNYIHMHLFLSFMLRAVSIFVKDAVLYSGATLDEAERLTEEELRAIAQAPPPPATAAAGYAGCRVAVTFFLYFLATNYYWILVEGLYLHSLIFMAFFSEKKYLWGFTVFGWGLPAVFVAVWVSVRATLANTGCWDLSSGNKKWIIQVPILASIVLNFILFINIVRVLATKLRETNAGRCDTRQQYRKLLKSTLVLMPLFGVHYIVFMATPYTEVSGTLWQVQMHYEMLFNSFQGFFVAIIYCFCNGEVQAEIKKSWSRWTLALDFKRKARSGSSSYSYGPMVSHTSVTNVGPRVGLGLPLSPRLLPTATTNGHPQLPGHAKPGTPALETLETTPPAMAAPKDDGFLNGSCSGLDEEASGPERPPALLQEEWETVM
substance,measurement,setting,value
"PTH (1-34): Synthetic peptide rat PTH(1-34) (Ala32-Phe65; Catalog No. H-5460), purchased from Bachem",thermogenic gene expression,"primary brown adipocytes; 100 ng ml^−1 peptide, 2 h, primary brown adipocytes (FIG. 20D)",stimulated thermogenic gene expression
same,thermogenic effects (thermogenic gene expression),"primary brown adipocytes; 1 μg/ml, primary brown adipocytes (FIG. 9A)",thermogenic effects
same,phosphorylation of the PKA substrates CREB and HSL,[1],stimulated the phosphorylation
same,UCP1 protein levels,"UCP1; 100 nM NE, 100 ng ml^−1 PTHrP or PTH, 24 h, primary white and brown adipocytes (FIG. 23A-23B)",comparably increased UCP1 protein levels
same,UCP1 protein levels,"UCP1; 24 hour treatment, norepinephrine 100 nM, peptides 100 ng/mL, western blotting (FIG. 8D)",significantly increased
same,duration of cAMP signal after ligand wash-out,PTH1R; Dean et al. (2008),longer lasting cAMP signal
same,potency for activating cAMP signaling,PTH1R; Juppner et al. (1991),equally potent for activating cAMP signaling
